Where only a bound is given, the exact number is not on record here.

This note sets out measurements from patent US20240067645A1, “HETEROCYCLIC COMPOUND AS DIACYLGLYCEROL KINASE INHIBITOR AND USE THEREOF” (LG CHEM, LTD., priority 2020, published 2024).

This experiment has as its target DGKα (Homo sapiens (Human), UniProt P23743). Kind of experiment: Measurement of inhibitory effect against DGKα enzyme (ADP-Glo). The note with it: DGKα enzyme, ADP-Glo luminescence, OAG/ATP substrate, 20 min room temperature; read-out: IC50. The class given is biochemical. As for the experimental part:
Experimental Example: Measurement of Inhibitory Effect Against DGKα Enzyme
First, 3×OAG (3 mM)/ATP (0.45 mM) substrate solution was prepared from 1× substrate assay buffer (40 mM MOPS (pH 7.2), 20 mM MgCl2, 1 mM DTT, 0.4 mM CaCl2), 3 mM sodium deoxycholate, 100 mM NaCl, 0.1 mg/mL BSA, 0.12% NP-40), and vortexed thoroughly for 3 minutes to induce detergent-lipid micelle formation. Then, 3×DGKα (7.5 nM) enzyme solution was prepared from 2× enzyme assay buffer (80 mM MOPS (pH 7.2), 2 mM DTT, 200 mM NaCl, 0.2 mg/mL BSA) and vortexed for a short time.
After preparing the above two solutions, a half-area opaque 96-well assay plate was prepared, and 10 μL of 3× diluted compound solution (30 μM to 0 μM) was transferred to each well. Next, 10 μL of 3×DGK enzyme solution was transferred to the same plate, mixed by pipetting, and then 10 μL of 3×OAG/ATP substrate solution was added to the assay plate and mixed well. The plate was incubated at room temperature for 20 minutes for the enzyme reaction. Next, 15 μL of ADP-Glo reagent was added to each well and mixed by pipetting, followed by incubating the plate at room temperature for 40 minutes to deplete the remaining ATPs. After this step, 30 μL of kinase detection reagent was added and mixed, and the plate was incubated at room temperature for an additional 20 minutes and luminescence was measured by Envision to calculate the IC50 value of each compound.
The measurement results are represented in Table 1 (+: IC50>5 μM, ++: 5 μM>IC50>300 nM, +++: IC50<300 nM).
On the technique in general: ADP-Glo first removes unused ATP, then detects ADP through luciferase.

Sequence of DGKα (P23743 whole entry, species assumed): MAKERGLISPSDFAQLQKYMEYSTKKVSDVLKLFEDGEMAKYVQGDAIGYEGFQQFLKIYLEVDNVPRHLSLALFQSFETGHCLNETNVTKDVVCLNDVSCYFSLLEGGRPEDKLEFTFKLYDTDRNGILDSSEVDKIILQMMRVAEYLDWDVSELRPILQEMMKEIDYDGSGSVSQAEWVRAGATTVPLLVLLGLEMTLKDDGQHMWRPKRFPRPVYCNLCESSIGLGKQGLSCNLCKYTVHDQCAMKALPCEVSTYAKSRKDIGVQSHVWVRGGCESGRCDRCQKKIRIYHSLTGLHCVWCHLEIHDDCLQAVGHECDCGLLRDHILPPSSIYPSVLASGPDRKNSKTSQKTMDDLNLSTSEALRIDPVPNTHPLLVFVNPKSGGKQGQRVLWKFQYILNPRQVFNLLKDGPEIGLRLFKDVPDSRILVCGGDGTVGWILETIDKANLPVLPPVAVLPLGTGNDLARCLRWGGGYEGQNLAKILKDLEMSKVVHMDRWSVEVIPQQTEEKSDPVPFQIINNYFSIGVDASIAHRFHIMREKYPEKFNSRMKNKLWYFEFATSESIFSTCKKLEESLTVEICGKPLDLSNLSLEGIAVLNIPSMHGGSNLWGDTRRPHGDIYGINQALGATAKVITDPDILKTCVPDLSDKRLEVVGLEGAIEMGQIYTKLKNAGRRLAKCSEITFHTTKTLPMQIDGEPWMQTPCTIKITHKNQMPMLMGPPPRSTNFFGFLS

As to `Cn1c(=O)c(=O)n(C2CCN(Cc3ccc(OC(F)(F)F)cc3)CC2)c2nc(C#N)c(Br)cc21` [Example 38, 7-bromo-1-methyl-2,3-dioxo-4-(1-(4-(trifluoromethoxy)benzyl)piperidin-4-yl)-1,2,3,4-tetrahydropyrido[2,3-b]pyrazine-6-carbonitrile], the IC50 lay in the range of 300 to 5000 nM.

As for `Cc1ccnc2c1n(C)c(=O)c(=O)n2C1CCN(Cc2ccc(OC(F)(F)F)cc2)CC1` [Example 56, 1,8-dimethyl-4-(1-(4-(trifluoromethoxy)benzyl)piperidin-4-yl)-1,4-dihydropyrido[2,3-b]pyrazine-2,3-dione], the IC50 was over 5000 nM.

Take `Cc1ccc2c(n1)n(C1CCN(Cc3cccc(Oc4ccccc4)c3)CC1)c(=O)c(=O)n2C` [Example 21, 1,6-dimethyl-4-(1-(3-phenoxybenzyl)piperidin-4-yl)-1,4-dihydropyrido[2,3-b]pyrazine-2,3-dione]: the IC50 lay within 300 to 5000 nM.

Turning to `Cc1ccc2c(n1)n(C1CCN(Cc3c(C)n(C)c4ccccc34)CC1)c(=O)c(=O)n2C` [Example 7, 4-(1-((1,2-dimethyl-1H-indol-3-yl)methyl)piperidin-4-yl)-1,6-dimethyl-1,4-dihydropyrido[2,3-b]pyrazine-2,3-dione], the half-inhibitory concentration (IC50) is over 5000 nM.

With `Cn1c(=O)c(=O)n(C2CCN(Cc3ccc(OC(F)(F)F)cc3)CC2)c2nc(-c3ccccc3F)c(Cl)cc21` [Example 41, 7-chloro-6-(2-fluorophenyl)-1-methyl-4-(1-(4-(trifluoromethoxy)benzyl)piperidin-4-yl)-1,4-dihydropyrido[2,3-b]pyrazine-2,3-dione], the half-maximal inhibitory concentration (IC50) was under 300 nM.

For the compound `Cn1c(=O)c(=O)n(C2CCN(Cc3cccc4ccccc34)CC2)c2ncc(Cl)cc21` [Example 29, 7-chloro-1-methyl-4-(1-(naphthalen-1-ylmethyl)piperidin-4-yl)-1,4-dihydropyrido[2,3-b]pyrazine-2,3-dione], the IC50 was under 300 nM.

For `Cn1c(=O)c(=O)n(C2CCN(Cc3ccc(OC(F)(F)F)cc3)CC2)c2ncc(C#N)cc21` [Example 47, 1-methyl-2,3-dioxo-4-(1-(4-(trifluoromethoxy)benzyl)piperidin-4-yl)-1,2,3,4-tetrahydropyrido[2,3-b]pyrazine-7-carbonitrile], the IC50 lay in the range of 300 to 5000 nM.

For the compound `Cn1c(=O)c(=O)n(C2CCN(Cc3cccc(Cl)c3)CC2)c2nc(C#N)ccc21` [Example 25, 4-(1-(3-chlorobenzyl)piperidin-4-yl)-1-methyl-2,3-dioxo-1,2,3,4-tetrahydropyrido[2,3-b]pyrazine-6-carbonitrile], the IC50 fell in the range of 300 to 5000 nM.

As for `Cc1ccc2c(n1)n(C1CCN(Cc3ccc(Cl)cc3)CC1)c(=O)c(=O)n2C` [Example 14, 4-(1-(4-chlorobenzyl)piperidin-4-yl)-1,6-dimethyl-1,4-dihydropyrido[2,3-b]pyrazine-2,3-dione], the IC50 fell in the range of 300 to 5000 nM.

For `Cc1cnc2c(c1)n(C)c(=O)c(=O)n2C1CCN(Cc2cccc(Cl)c2)CC1` [Example 67, 4-(1-(3-chlorobenzyl)piperidin-4-yl)-1,7-dimethyl-1,4-dihydropyrido[2,3-b]pyrazine-2,3-dione], the IC50 was under 300 nM.

Take `Cn1c(=O)c(=O)n(C2CCN(Cc3ccc(OC(F)(F)F)cc3)CC2)c2ncc(-c3ccccc3F)cc21` [Example 39, 7-(2-fluorophenyl)-1-methyl-4-(1-(4-(trifluoromethoxy)benzyl)piperidin-4-yl)-1,4-dihydropyrido[2,3-b]pyrazine-2,3-dione]: the IC50 is under 300 nM.

As usually defined, the IC50 is the concentration that inhibits the measured activity by half.
